Test results: ChEMBL document CHEMBL1158909, “A New Brominated Diphenyl Ether from a Philippine Dysidea Species” (J Nat Prod, 1990)
Activity calls are given as the source filed them. The rule behind the calls is not given here.

Tests used:
Staphylococcus aureus = test: Antimicrobial activity against Staphylococcus aureus; format: functional, organism-based
Bacillus subtilis = test: Antimicrobial activity against Bacillus subtilis; format: functional, organism-based

Row | SMILES | Activity (Staphylococcus aureus) | Activity (Bacillus subtilis)
1 | Oc1c(Br)c(Br)c(Br)c(Br)c1Oc1ccccc1Br | Active | Active
2 | COc1c(Br)c(Br)c(Br)c(Br)c1Oc1ccccc1Br | inactive | inactive
3 | Oc1c(Br)c(Br)c(Br)c(Br)c1Oc1ccc(Br)cc1Br | Active | Active
4 | COc1c(Br)c(Br)c(Br)c(Br)c1Oc1ccc(Br)cc1Br | inactive | inactive
